Source: patent US4417052A, “Phenyl-lower-alkyl piperidines and pyrrolidines” (Sterling Drug Inc., priority 1981, dated 1983)
Counter-ions that a name gives are not always drawn. Like-named read-outs stand apart in the source and are kept apart here.

Assays:
[1] = system: acetylcholine-induced abdominal constriction; experiment: acetylcholine-induced abdominal constriction test (Ach); assay type: in vivo, mice; conditions: for ED50: Mus musculus, read-out: Ach ED50
From the text: J. Pharmacol. Chemotherap. 32, 295 (1968); a modification of the anti-bradykinin test, which is also a primary analgesic screening procedure, described by Berkowitz et al., J. Pharmacol. Exp. Therap. 177, 500-508 (1971), Blane et al., J. Pharm. Pharmacol. 19, 367-373 (1967), Botha et al., Eur. J. Pharmacol. 6, 312-321 (1969) and Deffenu et al., J. Pharm. Pharmacol. 18, 135 (1966); the phenyl-p-quinone-induced writhing test, also a primary analgesic screening test, designed to measure the ability of a test agent to prevent phenyl-p-quinone-induced writhing in mice, described by Pearl and Harris, J. Pharmacol. Exptl. Therap. 154, 319-323 (1966); the rat tail flick radiant thermal heat analgesic (agonist) test described by D'Amour and Smith, J. Pharmacol. Exptl. Therap. 72, 74 (1941) as modified by Bass and VanderBrook, J. Am. Pharm. Assoc. Sci. Ed. 41, 569 (1956); and the phenazocine antagonist test, which is designed to measure the ability of a test agent to antagonize the effect of phenazocine in the above-indicated rat tail flick response test, described by Harris and Pierson, J. Pharmacol. Exptl. Therap. 143, 141 (1964).
The ED50 is the calculated Effective Dose in 50% of the test animals. The abbreviations s.c., p.o. and i.p. stand for subcutaneous, peroral and intraperitoneal routes of administration, respectively. The compounds are identified by the Example numbers above where their preparations are described.

[2] = system: carrageenin-induced foot edema; experiment: inhibition of carrageenin-induced foot edema test (C.E.); assay type: in vivo; conditions: oral; for inhibition in vivo at 20 µmol/kg: dose 0.02 millimoles/kg; for inhibition in vivo at 4 µmol/kg: dose 0.004 millimoles/kg; for C.E. percent inhibition (Table B): formula V amides
Experimental: (§1) Anti-inflammatory activity was determined using (1) the inhibition of carrageenin-induced foot edema test essentially described by Winter et al., Proc. Soc. Exp. Biol. and Med. 111, 554 (1962) as modified by Van Arman et al., J. Pharmacol. Exptl. Therap. 150, 328 (1965) and (2) a modification of the inhibition of adjuvant-induced arthritis test described by Pierson, J. Chronic Diseases 16, 863 (1963) and Glenn et al., Am. J. Vet. Res. 26, 1180 (1965).
(§2) The N-{2-,3- and 4-[R1 -(phenyl)-C(=X)]-phenyl-lower-alkyl}amines of formulas I, Ia and Ib of the invention have been tested in the carrageenin edema (CE) and adjuvant arthritis (AA) tests and found to have anti-inflammatory activity. For comparative purposes, data obtained in the carrageenin edema test on the reference compound (designated "Ref."), 4[(3-benzoylphenyl)methyl]morpholine, disclosed in French Patent 1,549,342, are also given. All data were obtained on oral administration.

[3] = system: adjuvant-induced arthritis; experiment: inhibition of adjuvant-induced arthritis test (A.A.); assay type: in vivo; conditions: oral; for inhibition in vivo at 5 µmol/kg: dose 0.005 millimoles/kg; for inhibition in vivo at 20 µmol/kg: dose 0.02 millimoles/kg; for A.A. percent inhibition (Table B): formula V amides
Experimental: as §1, §2

[4] = read-out: C.E. percent inhibition
[5] = dose 0.08 millimoles/kg, read-out: C.E. percent inhibition
[6] = dose 0.324 millimoles/kg, read-out: C.E. percent inhibition
[7] = read-out: A.A. percent inhibition
[8] = dose 0.08 millimoles/kg, read-out: A.A. percent inhibition
[9] = dose 0.324 millimoles/kg, read-out: A.A. percent inhibition

## CC(CN1CCCCC1CC1CCCCC1)c1cccc(C(O)c2ccccc2)c1 (stereo not drawn) [Example 1, 2-cyclohexylmethyl-1-{2-[3-(α-hydroxybenzyl)phenyl]propyl}piperidine]
[1]; po
  ED50: 71 mg/kg
[1]; dose 25, s.c.
  Ach percent inhibition of writhing: 7%
[1]; dose 75, s.c.
  Ach percent inhibition of writhing: 33%
[2]; dose 0.005 millimoles/kg, read-out: C.E. percent inhibition
  inhibition in vivo at 5 µmol/kg: 13%
[2]; [4]
  inhibition in vivo at 20 µmol/kg: 23%
[2]; [5]
  inhibition in vivo at 80 µmol/kg: 60%
[2]; [6]
  inhibition in vivo at 324 µmol/kg: 73%
[3]; [7]
  inhibition in vivo at 5 µmol/kg: 56%
  inhibition in vivo at 20 µmol/kg: 73%
[3]; [8]
  inhibition in vivo at 80 µmol/kg: 91%

## CC(CN1CCCCC1C1CCCCC1)c1cccc(C(=O)c2ccccc2)c1 (stereo not drawn) [Example 7E, 2-Cyclohexyl-1-[2-(3-benzoylphenyl)propyl]piperidine]
[1]; dose 25, s.c.
  Ach percent inhibition of writhing: 46%
[1]; dose 75, s.c.
  Ach percent inhibition of writhing: 93%
[2]; [5]
  inhibition in vivo at 80 µmol/kg: 33%
[2]; [6]
  inhibition in vivo at 324 µmol/kg: 58%
[3]; [8]
  inhibition in vivo at 80 µmol/kg: 92%

## CC(CN1CCCCC1CCC1CCCCC1)c1cccc(C(=O)c2ccccc2)c1 (stereo not drawn) [Example 7F, 2-(2-Cyclohexylethyl)-1-[2-(3-benzoylphenyl)propyl]piperidine]
[1]; dose 25, s.c.
  Ach percent inhibition of writhing: 7%
[1]; dose 75, s.c.
  Ach percent inhibition of writhing: 33%
[2]; [5]
  inhibition in vivo at 80 µmol/kg: 33%
[2]; [6]
  inhibition in vivo at 324 µmol/kg: 51%
[3]; [8]
  inhibition in vivo at 80 µmol/kg: 91%
[3]; dose 0.16 millimoles/kg
  toxicity: Toxic

## CC(CN1CCCCC1CC1CCCCC1)c1cccc(C(N)c2ccccc2)c1 (stereo not drawn) [Example 16, 2-cyclohexylmethyl-1-{2-[3-(α-aminobenzyl)phenyl]propyl}piperidine dihydrochloride]
[2]; [4]
  inhibition in vivo at 4 µmol/kg: 16%
  inhibition in vivo at 20 µmol/kg: 31%
[3]; [7]
  inhibition in vivo at 5 µmol/kg: 80%
  inhibition in vivo at 20 µmol/kg: 89%
[3]; [8]
  inhibition in vivo at 80 µmol/kg: 108%

## NC(c1ccccc1)c1cccc(CN2CCOCC2)c1 (stereo not drawn) [Example 16B, 4-{[3-(α-Aminobenzyl)phenyl]methyl}morpholine dihydrochloride monohydrate]
[2]; [5]
  inhibition in vivo at 80 µmol/kg: 0%
[2]; [6]
  inhibition in vivo at 324 µmol/kg: 36%
[3]; [9]
  inhibition in vivo at 324 µmol/kg: 0%

## CC1CCCC(C)N1CCc1ccc(O)c(C(=O)c2ccccc2)c1 (stereo not drawn) [Example 19, 2,6-dimethyl-1-[2-(3-benzoyl-4-hydroxyphenyl)ethyl]piperidine hydrochloride]
[2]; [4]
  inhibition in vivo at 20 µmol/kg: 5%
[2]; [5]
  inhibition in vivo at 80 µmol/kg: 0%
[2]; [6]
  inhibition in vivo at 324 µmol/kg: 23%
[3]; dose 0.16 millimoles/kg, read-out: A.A. percent inhibition
  inhibition in vivo at 160 µmol/kg: 1%

## CC(CN1CCCCC1CC1CCCCC1)c1cccc(C(=O)c2ccc(Cl)cc2)c1 (stereo not drawn) [Example 20, 2-cyclohexylmethyl-1-{2-[3-(4-chlorobenzoyl)phenyl]propyl}piperidine]
[2]; [4]
  inhibition in vivo at 4 µmol/kg: 16%
  inhibition in vivo at 20 µmol/kg: 52%
[3]; [7]
  inhibition in vivo at 5 µmol/kg: 63%
  inhibition in vivo at 20 µmol/kg: 90%
[3]; dose 0.08 millimoles/kg
  toxicity: Toxic

## CC(CN1CCCCC1CC1CCCCC1)c1cccc(C(=O)c2ccccc2Cl)c1 (stereo not drawn) [Example 20D, 2-Cyclohexylmethyl-1-{2-[3-(2-chlorobenzoyl)phenyl]propyl}piperidine]
[2]; [4]
  inhibition in vivo at 4 µmol/kg: 0%
  inhibition in vivo at 20 µmol/kg: 36%
[3]; [7]
  inhibition in vivo at 5 µmol/kg: 35%
  inhibition in vivo at 20 µmol/kg: 54%
[3]; [8]
  inhibition in vivo at 80 µmol/kg: 79%

## CC(CN1CCOCC1)c1ccc(C(=O)c2ccccc2)cc1 (stereo not drawn) [Example 24A, 4-[2-(4-benzoylphenyl)propyl]morpholine hydrochloride]
[2]; [5]
  inhibition in vivo at 80 µmol/kg: 44%
[2]; [6]
  inhibition in vivo at 324 µmol/kg: 56%
[3]; [9]
  inhibition in vivo at 324 µmol/kg: 78%

## CC(CN1CCC2(CC1)OCCO2)c1ccc(C(=O)c2ccccc2)cc1.Cl (stereo not drawn) [Example 24B, 8-[2-(4-benzoylphenyl)propyl]1,4-dioxa-8-azaspiro[4,5]decane hydrochloride]
[2]; [5]
  inhibition in vivo at 80 µmol/kg: 38%
[2]; [6]
  inhibition in vivo at 324 µmol/kg: 50%
[3]; [8]
  inhibition in vivo at 80 µmol/kg: 30%
[3]; dose 0.324 millimoles/kg
  toxicity: Toxic

## CC(CN1CCNCC1)c1ccc(C(=O)c2ccccc2)cc1.Cl.Cl (stereo not drawn) [Example 24C, 1-[2-(4-benzoylphenyl)propyl]piperazine dihydrochloride]
[1]; po
  ED50: 20 mg/kg
[2]; [5]
  inhibition in vivo at 80 µmol/kg: 16%
[2]; [6]
  inhibition in vivo at 324 µmol/kg: 41%
[3]; [9]
  inhibition in vivo at 324 µmol/kg: 63%

## CC(CN1CCSCC1)c1ccc(C(=O)c2ccccc2)cc1 (stereo not drawn) [Example 24D, 4-[2-(4-benzoylphenyl)propy]thiomorpholine hydrochloride]
[1]; po
  ED50: 50 mg/kg
[2]; [5]
  inhibition in vivo at 80 µmol/kg: 61%
[2]; [6]
  inhibition in vivo at 324 µmol/kg: 70%
[3]; [8]
  inhibition in vivo at 80 µmol/kg: 28%

## CC(CN1CCC2(CC1)SCCS2)c1ccc(C(=O)c2ccccc2)cc1.Cl (stereo not drawn) [Example 24E, 8-[2-(4-benzoylphenyl)propyl]-1,4-dithia-8-azaspiro[4,5]decane hydrochloride]
[1]; po
  ED50: 39 mg/kg

## CC(CN1CCC2(CC1)OCCS2)c1ccc(C(=O)c2ccccc2)cc1.Cl (stereo not drawn) [Example 24F, 8-[2-(4-benzoylphenyl)propyl]-1-oxa-4-thia-8-azaspiro[4,5]decane hydrochloride]
[1]; po
  ED50: 18 mg/kg

## CC(CN1CCNCC1)c1cccc(C(=O)c2ccccc2)c1.Cl.Cl (stereo not drawn) [Example 24G, 1-[2-(3-benzoylphenyl)propyl]piperazine dihydrochloride]
[1]; po
  ED50: 30 mg/kg
[1]; sc
  ED50: 5.6 mg/kg
[2]; [5]
  inhibition in vivo at 80 µmol/kg: 32%
[2]; [6]
  inhibition in vivo at 324 µmol/kg: 52%

## CC(C)(CN1CCOCC1)c1cccc(C(=O)c2ccccc2)c1.Cl [Example 24H, 4-[2,2-dimethyl-2-(3-benzoylphenyl)ethyl]morpholine hydrochloride]
[1]; dose 25, s.c.
  Ach percent inhibition of writhing: 7%
[1]; dose 50, s.c.
  Ach percent inhibition of writhing: 13%
[1]; dose 150, s.c.
  Ach percent inhibition of writhing: 73%
[2]; [5]
  inhibition in vivo at 80 µmol/kg: 0%
[2]; [6]
  inhibition in vivo at 324 µmol/kg: 22%
[3]; [9]
  inhibition in vivo at 324 µmol/kg: 8%

## CC(C)(CN1CCC2(CC1)OCCO2)c1cccc(C(=O)c2ccccc2)c1.Cl [Example 24J, 8-[2,2-dimethyl-2-(3-benzoylphenyl)ethyl]-1,4-dioxa-8-azaspiro[4,5]decane hydrochloride]
[1]; dose 25, s.c.
  Ach percent inhibition of writhing: 33%
[1]; dose 50, p.o.
  Ach percent inhibition of writhing: 27%
[1]; dose 150, p.o.
  Ach percent inhibition of writhing: 53%
[2]; [5]
  inhibition in vivo at 80 µmol/kg: 6%
[2]; [6]
  inhibition in vivo at 324 µmol/kg: 8%
[3]; [9]
  inhibition in vivo at 324 µmol/kg: 36%

## CC(C)(CN1CCOCC1)c1ccc(C(=O)c2ccccc2)cc1.Cl [Example 24K, 4-[2,2-dimethyl-2-(4-benzoylphenyl)ethyl]morpholine hydrochloride]
[1]; po
  ED50: 38 mg/kg
[2]; [5]
  inhibition in vivo at 80 µmol/kg: 19%
[2]; [6]
  inhibition in vivo at 324 µmol/kg: 60%
[3]; [9]
  inhibition in vivo at 324 µmol/kg: 7%

## CC(C)(CN1CCC2(CC1)OCCO2)c1ccc(C(=O)c2ccccc2)cc1.Cl [Example 24L, 8-[2,2-dimethyl-2-(4-benzoylphenyl)ethyl]-1,4-dioxa-8-azaspiro[4,5]decane hydrochloride]
[1]; po
  ED50: 60 mg/kg
[2]; [5]
  inhibition in vivo at 80 µmol/kg: 46%
[2]; [6]
  inhibition in vivo at 324 µmol/kg: 70%
[3]; [8]
  inhibition in vivo at 80 µmol/kg: 24%

## CC(C(=O)N1CCN(C2CCCCC2)CC1)c1cccc(Cc2ccccc2)c1.Cl (stereo not drawn) [Example 25, 4-cyclohexyl-1-[α-(3-benzylphenyl)propionyl]piperazine hydrochloride]
[2]; dose 0.08 millimoles/kg
  C.E. percent inhibition (Table B): 0%
[2]; dose 0.324 millimoles/kg
  C.E. percent inhibition (Table B): 45%
[3]; dose 0.162 millimoles/kg
  A.A. percent inhibition (Table B): 79%

## CC(C(=O)N1CCN(C2CCCCCC2)CC1)c1cccc(Cc2ccccc2)c1.Cl (stereo not drawn) [Example 25B, 4-Cycloheptyl-1-[α-(3-benzylphenyl)propionyl]piperazine hydrochloride]
[2]; dose 0.08 millimoles/kg
  C.E. percent inhibition (Table B): 25%
[2]; dose 0.324 millimoles/kg
  C.E. percent inhibition (Table B): 44%
[3]; dose 0.324 millimoles/kg
  A.A. percent inhibition (Table B): 78%
